In US20240317756A1, “INHIBITORS OF BRUTON'S TYROSINE KINASE” (Pharmacyclics LLC, priority 2006, published 2024):
Values belong to the compound of their own block, whether it stands above or below them.

How the values were obtained:
[1] = molecular target: EGFR (Homo sapiens (Human), UniProt P00533); assay: in vitro HotSpot kinase assay, EGFR; format: biochemical; settings: Table 2, 1 uM ATP, one hour incubation with inhibitor
[2] = test system: lymphoma cell line DOHH2; assay: DOHH2 cell proliferation assay (Alamar Blue); format: cell-based
Protocol: After 72 hours, cell number was measured using Alamar Blue using manufacturer's protocol. A dilution series of untreated cells was run in parallel to verify that the Alamar Blue assay reliably reflected cell number and that growth conditions were not limiting. […] GI50 values were confirmed in two or more separate experiments for each cell line.
Analogs are generated that are Btk inhibitors and that are cytotoxic to the lymphoma cell line DOHH2. For the DOHH2 cell proliferation assay, cells were seeded in 96-well plates in standard growth media (RPMI+10% fetal calf serum) and compounds were added in a 9-point dilution series ranging from 10 uM to 0.04 uM with DMSO at 0.1% final concentration in all wells. After 72 hours, cell number was measured using Alamar Blue using manufacturer's protocol. A dilution series of untreated cells was run in parallel to verify that the Alamar Blue assay reliably reflected cell number and that growth conditions were not limiting.

[3] = test system: Tec family kinases, including Btk, and Src family kinases; assay: in vitro profiling against a panel of greater than 100 kinases; format: biochemical
Excerpt: By way of example only and in some embodiments, the observed potency, selectivity, and cell permeability of compounds such as Compound 2 are appropriate to incorporate these molecules into a Kinase-targeted, activity based probe that allows direct visualization of Kinase activity in intact cells. […] Without limiting the scope of the compositions and methods described herein, it is postulated that the structural basis for the selectivity is covalent modification of a non-catalytic cysteine residue (Cys 481 in Btk) that is conserved in the ATP binding pocket of the Tec family and several other kinases.

[4] = molecular target: BTK (Homo sapiens (Human), UniProt Q06187); assay: in vitro HotSpot kinase assay, BTK; format: biochemical; settings: Table 2, 1 uM ATP, one hour incubation with inhibitor
[5] = molecular target: CSK (Homo sapiens (Human), UniProt P41240); assay: in vitro HotSpot kinase assay, CSK; format: biochemical; settings: purified enzymes, 33P-ATP, 1 uM ATP
[6] = molecular target: YES (Homo sapiens (Human), UniProt P07947); assay: in vitro HotSpot kinase assay, YES; format: biochemical; settings: purified enzymes, 33P-ATP, 1 uM ATP
[7] = molecular target: Fyn (Homo sapiens (Human), UniProt P06241); assay: in vitro HotSpot kinase assay, Fyn; format: biochemical; settings: purified enzymes, 33P-ATP, 1 uM ATP
[8] = molecular target: FGR (Homo sapiens (Human), UniProt P09769); assay: in vitro HotSpot kinase assay, FGR; format: biochemical; settings: purified enzymes, 33P-ATP, 1 uM ATP
[9] = molecular target: Lyn (Homo sapiens (Human), UniProt P07948); assay: in vitro HotSpot kinase assay, Lyn; format: biochemical; settings: purified enzymes, 33P-ATP, 1 uM ATP
[10] = molecular target: C-src (Homo sapiens (Human), UniProt P12931); assay: in vitro HotSpot kinase assay, C-src; format: biochemical; settings: purified enzymes, 33P-ATP, 1 uM ATP
Excerpt: (§1) Table 1 is a table showing the degree of inhibition of a panel of kinases for two example compounds. […] Thus, subtle modifications in the linker moiety and the Michael acceptor moiety are important for the design of selective ACK inhibitors.

[11] = molecular target: HER2 (Homo sapiens (Human), UniProt P04626); assay: in vitro HotSpot kinase assay, HER2; format: biochemical; settings: purified enzymes, 33P-ATP, 1 uM ATP
[12] = molecular target: BLK (Homo sapiens (Human), UniProt P51451); assay: in vitro HotSpot kinase assay, BLK; format: biochemical; settings: purified enzymes, 33P-ATP, 1 uM ATP
[13] = molecular target: ABL (Homo sapiens (Human), UniProt P00519); assay: in vitro HotSpot kinase assay, ABL; format: biochemical; settings: purified enzymes, 33P-ATP, 1 uM ATP
[14] = molecular target: FER (Homo sapiens (Human), UniProt P16591); assay: in vitro HotSpot kinase assay, FER; format: biochemical; settings: purified enzymes, 33P-ATP, 1 uM ATP
[15] = molecular target: HER4 (Homo sapiens (Human), UniProt Q15303); assay: in vitro HotSpot kinase assay, HER4; format: biochemical; settings: purified enzymes, 33P-ATP, 1 uM ATP
Excerpt: as §1

[16] = molecular target: SYK (Homo sapiens (Human), UniProt P43405); assay: in vitro HotSpot kinase assay, SYK; format: biochemical; settings: purified enzymes, 33P-ATP, 1 uM ATP
Excerpt: as §1

[17] = test system: collagen-induced arthritis; assay: collagen-induced arthritis in the mouse; format: in vivo, Male DBA/lOlaHsd mice; settings: 12.5 mg/kg or 50 mg/kg each day of an 11-day period
Protocol: […]. […] Dexamethasone was included as a positive control. Paw inflammation was scored from 0-5 and averaged across all paws from all animals for each group in the study.
. After paw inflammation was established, animals were randomized and Compound lor vehicle was dosed orally once per day starting at day 1. Paw inflammation was scored from 0-5 and averaged across all paws from all animals for each group in the study. […] Dexamethasone was included as a positive control.

[18] = molecular target: TEC (Homo sapiens (Human), UniProt P42680); assay: in vitro HotSpot kinase assay, TEC; format: biochemical; settings: purified enzymes, 33P-ATP, 1 uM ATP
[19] = molecular target: Brk (Homo sapiens (Human), UniProt Q13882); assay: in vitro HotSpot kinase assay, Brk; format: biochemical; settings: purified enzymes, 33P-ATP, 1 uM ATP
[20] = test system: Egr-1; assay: expression of ERK transcriptional target Egr-1; format: cell-based; settings: 1 uM
[21] = test system: pERK and BCR pathway phosphorylation in DOHH2 cells; assay: BCR signal transduction pathway phosphorylation, DOHH2; format: cell-based; settings: unstimulated DOHH2 cells; read-out: IC50 for decrease of pERK levels
Excerpt: To identify biomarkers that correlate with response to Compound 1, phosphorylation events in the BCR signal transduction pathway were investigated.
However, when we examined basal phosphorylation levels, we found higher basal phosphorylation in DOHH2 compared to Ramos, with phospho-ERK in particular indicating higher levels of basal or tonic signaling in DOHH2.

[22] = test system: lymphoma cell line WSU-DLCL2; assay: BCR cross-linking by anti-IgG in WSU-DLCL2; format: cell-based; settings: WSU-DLCL2, anti-IgG 30 ug/ml
[23] = molecular target: JAK3 (Homo sapiens (Human), UniProt P52333); assay: in vitro HotSpot kinase assay, JAK3; format: biochemical; settings: Table 2, 1 uM ATP, one hour incubation with inhibitor
[24] = molecular target: LCK (Homo sapiens (Human), UniProt P06239); assay: in vitro HotSpot kinase assay, LCK; format: biochemical; settings: Table 2, 1 uM ATP, one hour incubation with inhibitor
[25] = molecular target: ITK (Homo sapiens (Human), UniProt Q08881); assay: in vitro HotSpot kinase assay, ITK; format: biochemical; settings: Table 2, 1 uM ATP, one hour incubation with inhibitor
[26] = plasma concentrations after oral dosing of rats; format: in vivo; settings: single oral dose 8 mg/kg each in combination
Protocol: Blood samples were collected at 0.0833 (5 minutes), 0.333 (20 minutes), 1, 3, 6, 9, and 24 hours post-dosing from orally dosed rats.
Male jugular vein cannulated rats were administered a single dose of all test compounds at 8 mg/kg each, in combination by oral gavage. Dose volumes were adjusted based on body weight data collected immediately prior to dosing. Blood samples were collected at 0.0833 (5 minutes), 0.333 (20 minutes), 1, 3, 6, 9, and 24 hours post-dosing from orally dosed rats. The samples were collected into plasma separator Microtainer tubes with anticoagulant (lithium heparin). Plasma samples were prepared by centrifugation (5 min at 5000×g), and at least 100 μL were transferred to storage tubes and stored frozen at −80° C. Plasma samples were thawed and 75 uL aliquots were transferred to centrifuge tubes to which 10 μL aliquots of internal standard solution (1 μg/mL) were added. The samples were not diluted with blank plasma prior to further processing. Soluble proteins were precipitated by the addition of 200 μL of acetonitrile, followed by centrifugation (20 min at 16,000×g). The samples were evaporated to dryness and reconstituted in 200 μL of water containing 0.2% formic acid and 10% methanol. All samples were loaded onto an autosampler maintained at 6° C. and evaluated for concentrations of test compounds using LC-MS/MS.

[27] = glutathione binding assay; settings: 5 mM glutathione, 10 μM Btk inhibitor, room temperature, HPLC
Protocol: A calculated value (e.g (1/Btk IC50)/Glutathione conjugation rate) as shown in the Table 2) is used to compare compounds for their ratio between potency at inhibiting their target and their non-specific binding to other SH groups, such as those in glutathione. […] Calculated ratios such as these are used to quantitatively compare different compounds and select compounds for further study.
For the glutathione binding assays, 5 mM glutathione, 10 μM Btk inhibitor in DMSO (10 μL) and 6 equivalents of N′N′ Diisopropyl ethyl amine were combined in 1 mL potassium phosphate buffer. The mixture was incubated for 0, 15, 60 minutes at room temperature and the reaction was stopped with 10 equivalents of formic acid. 50 μL of each reaction mixture was injected on HPLC (Mobil Phase A: 0.2% formic acid in water, Mobile Phase B: 0.2% formic acid in acetonitrile, HPLC Column: Metasil Basic 3μ, 150×4.6 mm, 10% B, Gradient: 10% to 90% B, Detection: UV/Vis […]). Rate of reaction was reported as nmole GSH conjugate conversion per minute from the normalized ratio for area under the curve from HPLC chromatograms for both GSH conjugate and the parent.

BTK, sequence (Q06187 whole entry): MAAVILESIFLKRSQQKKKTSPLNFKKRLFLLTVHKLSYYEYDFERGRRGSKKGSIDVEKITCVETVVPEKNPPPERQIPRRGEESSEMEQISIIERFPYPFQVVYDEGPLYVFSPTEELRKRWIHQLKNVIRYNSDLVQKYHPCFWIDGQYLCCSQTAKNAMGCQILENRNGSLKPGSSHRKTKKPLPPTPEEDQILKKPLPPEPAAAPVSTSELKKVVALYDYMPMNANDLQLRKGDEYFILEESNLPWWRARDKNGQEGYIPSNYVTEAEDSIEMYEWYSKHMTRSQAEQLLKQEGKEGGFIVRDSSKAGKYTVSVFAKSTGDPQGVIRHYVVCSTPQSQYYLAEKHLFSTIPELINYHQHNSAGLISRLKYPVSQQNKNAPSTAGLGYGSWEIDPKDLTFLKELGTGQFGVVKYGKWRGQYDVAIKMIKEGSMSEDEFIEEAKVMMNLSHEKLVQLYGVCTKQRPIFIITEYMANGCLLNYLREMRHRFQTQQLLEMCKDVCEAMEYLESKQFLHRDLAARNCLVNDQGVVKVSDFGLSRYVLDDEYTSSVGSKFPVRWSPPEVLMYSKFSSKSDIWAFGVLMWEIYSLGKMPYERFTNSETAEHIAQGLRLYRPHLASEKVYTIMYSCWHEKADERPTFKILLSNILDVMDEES
EGFR, sequence (P00533 25-1210, species assumed): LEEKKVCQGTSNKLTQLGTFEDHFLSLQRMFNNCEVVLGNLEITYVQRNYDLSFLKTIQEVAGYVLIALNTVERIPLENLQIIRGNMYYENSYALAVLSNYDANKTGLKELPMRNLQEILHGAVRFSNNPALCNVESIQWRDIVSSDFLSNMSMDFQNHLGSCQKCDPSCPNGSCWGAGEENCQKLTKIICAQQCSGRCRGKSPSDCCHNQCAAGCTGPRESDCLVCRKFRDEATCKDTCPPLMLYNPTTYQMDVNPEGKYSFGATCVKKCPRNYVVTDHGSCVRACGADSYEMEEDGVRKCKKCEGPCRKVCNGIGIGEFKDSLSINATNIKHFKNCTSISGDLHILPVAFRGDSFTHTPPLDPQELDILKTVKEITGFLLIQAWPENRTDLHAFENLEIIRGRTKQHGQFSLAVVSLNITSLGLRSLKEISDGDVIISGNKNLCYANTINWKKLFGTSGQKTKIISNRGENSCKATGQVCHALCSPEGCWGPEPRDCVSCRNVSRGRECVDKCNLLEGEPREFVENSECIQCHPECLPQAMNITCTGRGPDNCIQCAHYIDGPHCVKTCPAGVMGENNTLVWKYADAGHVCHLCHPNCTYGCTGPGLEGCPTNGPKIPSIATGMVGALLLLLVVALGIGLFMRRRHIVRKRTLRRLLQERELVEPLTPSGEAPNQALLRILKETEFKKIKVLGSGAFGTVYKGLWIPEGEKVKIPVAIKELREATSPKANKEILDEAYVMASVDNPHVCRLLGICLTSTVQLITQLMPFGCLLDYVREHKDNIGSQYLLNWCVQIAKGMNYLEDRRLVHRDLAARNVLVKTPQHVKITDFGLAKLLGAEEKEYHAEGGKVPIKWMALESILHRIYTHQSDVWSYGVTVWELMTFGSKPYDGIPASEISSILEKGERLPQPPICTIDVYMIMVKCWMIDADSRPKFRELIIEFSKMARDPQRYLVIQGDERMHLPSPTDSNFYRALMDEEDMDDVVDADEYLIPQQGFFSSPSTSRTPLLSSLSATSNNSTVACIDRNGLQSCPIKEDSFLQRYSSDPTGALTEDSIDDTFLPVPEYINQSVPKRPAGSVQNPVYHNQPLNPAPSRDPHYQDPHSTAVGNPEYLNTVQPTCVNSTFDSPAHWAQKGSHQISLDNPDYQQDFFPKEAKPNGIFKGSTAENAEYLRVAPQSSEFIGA
JAK3, sequence (P52333 whole entry, species assumed): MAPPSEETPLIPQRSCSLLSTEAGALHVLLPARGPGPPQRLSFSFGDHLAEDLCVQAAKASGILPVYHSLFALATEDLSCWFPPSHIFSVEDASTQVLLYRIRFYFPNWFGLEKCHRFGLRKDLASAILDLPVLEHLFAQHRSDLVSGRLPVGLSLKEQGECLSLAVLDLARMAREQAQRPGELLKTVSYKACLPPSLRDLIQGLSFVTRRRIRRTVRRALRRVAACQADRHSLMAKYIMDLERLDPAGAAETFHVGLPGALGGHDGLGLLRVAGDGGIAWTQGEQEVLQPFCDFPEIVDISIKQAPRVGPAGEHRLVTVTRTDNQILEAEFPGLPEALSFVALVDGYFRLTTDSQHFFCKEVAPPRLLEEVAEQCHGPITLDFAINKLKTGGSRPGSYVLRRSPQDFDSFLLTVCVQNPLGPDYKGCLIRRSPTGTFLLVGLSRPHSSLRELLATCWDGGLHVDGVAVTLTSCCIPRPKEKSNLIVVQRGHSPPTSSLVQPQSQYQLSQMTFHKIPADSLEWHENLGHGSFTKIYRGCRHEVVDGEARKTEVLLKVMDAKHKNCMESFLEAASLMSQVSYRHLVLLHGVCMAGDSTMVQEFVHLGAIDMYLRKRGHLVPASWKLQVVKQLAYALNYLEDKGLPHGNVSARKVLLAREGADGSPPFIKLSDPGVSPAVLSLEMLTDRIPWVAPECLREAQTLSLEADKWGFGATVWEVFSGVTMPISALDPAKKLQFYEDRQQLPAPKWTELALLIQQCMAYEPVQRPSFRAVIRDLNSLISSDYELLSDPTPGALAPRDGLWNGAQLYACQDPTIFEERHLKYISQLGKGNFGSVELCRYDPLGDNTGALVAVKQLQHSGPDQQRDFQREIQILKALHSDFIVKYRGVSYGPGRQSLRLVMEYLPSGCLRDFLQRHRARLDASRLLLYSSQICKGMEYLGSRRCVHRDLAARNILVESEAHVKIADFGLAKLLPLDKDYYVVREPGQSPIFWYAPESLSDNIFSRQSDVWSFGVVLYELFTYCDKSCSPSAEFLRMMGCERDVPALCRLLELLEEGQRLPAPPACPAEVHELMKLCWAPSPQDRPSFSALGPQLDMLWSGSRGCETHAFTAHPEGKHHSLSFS
LCK, sequence (P06239 whole entry, species assumed): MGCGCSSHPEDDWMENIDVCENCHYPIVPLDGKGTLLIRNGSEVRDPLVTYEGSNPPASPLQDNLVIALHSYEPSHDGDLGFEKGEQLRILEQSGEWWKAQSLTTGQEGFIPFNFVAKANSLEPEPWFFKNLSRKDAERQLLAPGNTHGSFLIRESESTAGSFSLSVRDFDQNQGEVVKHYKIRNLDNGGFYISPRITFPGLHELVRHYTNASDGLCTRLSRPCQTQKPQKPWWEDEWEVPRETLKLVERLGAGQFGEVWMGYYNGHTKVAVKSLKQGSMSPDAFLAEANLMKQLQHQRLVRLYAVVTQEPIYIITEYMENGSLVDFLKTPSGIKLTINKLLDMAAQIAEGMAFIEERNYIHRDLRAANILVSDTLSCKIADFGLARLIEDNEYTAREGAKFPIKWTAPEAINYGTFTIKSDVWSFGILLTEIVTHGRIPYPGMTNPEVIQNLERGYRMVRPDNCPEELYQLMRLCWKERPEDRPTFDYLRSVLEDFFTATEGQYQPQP
ITK, sequence (Q08881 whole entry, species assumed): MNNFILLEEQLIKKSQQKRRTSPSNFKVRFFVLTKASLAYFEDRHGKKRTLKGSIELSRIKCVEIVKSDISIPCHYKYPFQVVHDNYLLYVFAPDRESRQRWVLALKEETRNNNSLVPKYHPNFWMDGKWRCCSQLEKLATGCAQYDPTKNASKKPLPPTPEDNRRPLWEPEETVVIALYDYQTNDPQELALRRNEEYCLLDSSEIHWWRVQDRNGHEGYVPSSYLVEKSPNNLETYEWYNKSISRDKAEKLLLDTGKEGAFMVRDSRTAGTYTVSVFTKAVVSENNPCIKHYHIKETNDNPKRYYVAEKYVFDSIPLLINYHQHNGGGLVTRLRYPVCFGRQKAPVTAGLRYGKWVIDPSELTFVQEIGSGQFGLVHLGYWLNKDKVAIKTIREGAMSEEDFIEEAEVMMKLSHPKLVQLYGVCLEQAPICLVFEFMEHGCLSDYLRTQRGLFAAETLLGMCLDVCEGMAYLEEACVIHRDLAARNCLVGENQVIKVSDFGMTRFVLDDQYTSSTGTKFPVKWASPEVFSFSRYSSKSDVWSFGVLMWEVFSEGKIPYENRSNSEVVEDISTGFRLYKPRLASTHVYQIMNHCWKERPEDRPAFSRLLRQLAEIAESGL
BLK, sequence (P51451 whole entry, species assumed): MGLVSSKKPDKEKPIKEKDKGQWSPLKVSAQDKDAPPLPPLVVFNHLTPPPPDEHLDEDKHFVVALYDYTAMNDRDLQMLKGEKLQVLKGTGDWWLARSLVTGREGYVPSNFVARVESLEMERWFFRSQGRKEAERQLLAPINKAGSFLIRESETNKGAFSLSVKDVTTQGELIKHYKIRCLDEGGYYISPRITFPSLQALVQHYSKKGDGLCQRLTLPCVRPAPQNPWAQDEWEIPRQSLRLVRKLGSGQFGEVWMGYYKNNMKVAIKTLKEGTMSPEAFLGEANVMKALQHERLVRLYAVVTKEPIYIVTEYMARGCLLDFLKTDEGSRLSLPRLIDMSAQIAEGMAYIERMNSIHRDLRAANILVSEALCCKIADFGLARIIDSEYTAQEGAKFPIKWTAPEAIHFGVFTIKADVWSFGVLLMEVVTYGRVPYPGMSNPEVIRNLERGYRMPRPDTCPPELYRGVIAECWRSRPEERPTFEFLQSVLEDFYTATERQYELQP
Brk, sequence (Q13882 whole entry, species assumed): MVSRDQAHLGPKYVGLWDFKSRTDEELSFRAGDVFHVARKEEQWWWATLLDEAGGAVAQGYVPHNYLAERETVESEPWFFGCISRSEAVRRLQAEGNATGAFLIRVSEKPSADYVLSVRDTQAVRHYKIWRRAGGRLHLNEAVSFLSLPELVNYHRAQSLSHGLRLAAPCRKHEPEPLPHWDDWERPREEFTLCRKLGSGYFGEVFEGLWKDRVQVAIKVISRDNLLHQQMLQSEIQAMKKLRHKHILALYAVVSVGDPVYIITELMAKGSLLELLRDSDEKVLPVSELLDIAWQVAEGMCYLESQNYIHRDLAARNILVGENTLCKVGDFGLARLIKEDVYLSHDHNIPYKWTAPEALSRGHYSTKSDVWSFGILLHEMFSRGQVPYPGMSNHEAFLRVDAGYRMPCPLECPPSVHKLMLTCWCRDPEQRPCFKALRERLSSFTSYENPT

IC50 [1]: 48.8 nM
GI50 ([2]; 72 hours): 320 nM
potency and selectivity in kinase panel [3]: highly potent and selective inhibitor
IC50 [4]: 1.1 nM
Compound: CN(C)C/C=C/C(=O)N1CCC[C@@H](n2nc(-c3ccc(Oc4ccccc4)cc3)c3c(N)ncnc32)C1 [Compound 2]

IC50 [5]: 2.4 nM
IC50 [6]: 0.8 nM
IC50 [7]: 7.1 nM
GI50 ([2]; 72 hours): 11 nM
IC50 [8]: 0.4 nM
IC50 [9]: 1.2 nM
IC50 [10]: 14.3 nM
IC50 [11]: 1540 nM
IC50 [12]: 0.2 nM
IC50 [13]: 32.3 nM
IC50 [14]: 3350 nM
IC50 [15]: 3.2 nM
IC50 [16]: > 10000 nM
IC50 [18]: 108 nM
IC50 [19]: 3.3 nM
Compound: C=CC(=O)N[C@H]1CC[C@@H](n2nc(-c3ccc(Oc4ccccc4)cc3)c3c(N)ncnc32)CC1 [Compound 9]
paw inflammation [17]: reduced the increase in paw inflammation

Compound: Nc1ncnc2c1c(-c1ccc(Oc3ccccc3)cc1)nn2[C@@H]1CCCCN1C(=O)/C=C/c1c[nH]cn1 [Compound 4]
time to reduced Egr-1 expression [20]: ≤ 1 h
maximal downregulation of Egr-1 expression ([20]; achieved by 4 hr): 10 fold
IC50 [4]: 22.2 nM
IC50 [21]: < 10 nM
inhibition of pERK under BCR cross-linking [22]: overcomes inhibition of pERK

IC50 [23]: > 10000 nM
IC50 [1]: 269 nM
GI50 ([2]; Homo sapiens, DOHH-2, 72 hours): 317 nM
IC50 [24]: 2.6 nM
IC50 [4]: 6.3 nM
IC50 [25]: 6120 nM
in vivo half-life [26]: significantly longer in vivo half-life
Glutathione Conj Rate [27]: 0.01 nmol/min
Compound: CN(C)C/C=C/C(=O)N1CCC(n2nc(-c3ccc(Oc4ccccc4)cc3)c3c(N)ncnc32)CC1 [Compound 7, (E)-1-(4-(4-amino-3-(4-phenoxyphenyl)-1H-pyrazolo[3,4-d]pyrimidin-1-yl)piperidin-1-yl)-4-(dimethylamino)but-2-en-1-one]

IC50 [23]: > 10000 nM
IC50 [1]: 698 nM
GI50 ([2]; 72 hours): > 10000 nM
IC50 [24]: 5.97 nM
IC50 [4]: 1.33 nM
IC50 [25]: 14300 nM
in vivo half-life [26]: short half-life in vivo
Glutathione Conj Rate [27]: 0.004361 nmol/min
Compound: CN(C)C/C=C/C(=O)N1CCC[C@H]1Cn1nc(-c2ccc(Oc3ccccc3)cc2)c2c(N)ncnc21 [Compound 12, (E)-1-((S)-2-((4-amino-3-(4-phenoxyphenyl)-1H-pyrazolo[3,4-d]pyrimidin-1-yl)methyl)pyrolidin-1-yl)-4-(dimethylamino)but-2-en-1-one]
